Earlier results as cited in patent US9974867B2, “Cytotoxic benzodiazepine derivatives” (priority 2014, dated 2018).

Conditions: Phase I clinical evaluation; cited from earlier work

Structure (SMILES): C=C1C[C@H]2C=Nc3cc(OCCCOc4cc5c(cc4OC)C(=O)N4CC(=C)C[C@H]4C=N5)c(OC)cc3C(=O)N2C1 [SJG-136]
- maximum tolerated dose: 45 μg/m^2
